Patent publication US20250215042A1, “MANNOSE-TARGETED COMPOSITIONS” (GENEVANT SCIENCES GMBH, priority 2022, published 2025)

Key:
[1] = system: human CD14+ monocyte derived M1 macrophages; assay: Binding of biotin-mannose/AF488-streptavidin complex to M1 macrophages (flow cytometry); format: cell-based; details: for mannose ligand conjugated fluorescence (ligand binding): M1 macrophages, complex at 0.5, 0.1 and 0.02 μM, 4° C., 1.5 hours; for binding to M1 macrophages, tetra-, hexa- and octa-valent compared: FIG. 3
[2] = system: human CD14+ monocyte derived M2 macrophages; assay: Binding of biotin-mannose/AF488-streptavidin complex to M2 macrophages (flow cytometry); format: cell-based; details: FIG. 2; for mannose ligand conjugated fluorescence (ligand binding): M2 macrophages, complex at 0.5, 0.1 and 0.02 μM, 4° C., 1.5 hours
[3] = system: M1 macrophages; assay: D-mannose competition with Cy3-tetra-mannose-siCD45 uptake in M1 macrophages; format: cell-based, human; details: competitor 139 mM, 5 minutes before conjugate 5 μg/mL, 1 hour; FIG. 5
Experimental: OptiMEM containing D-mannose or D-galactose was added onto testing cells to reach the final concentration of 139 mM and incubated at 37° C. for 5 minutes. […] The cells were then washed with PBS 3 times and fixed with 4% PFA for 10 minutes at room temperature. The chambers were removed from the slides and the cells were mounted with one drop of mounting media containing DAPI staining for the nuclei. The slides were covered, sealed and analyzed under fluorescent microscope.

`O=C(CCCC[C@@H]1SC[C@@H]2NC(=O)N[C@@H]21)NCC(=O)Nc1cc(C(=O)NCCOCCOCCO[C@H]2O[C@H](CO)[C@@H](O)[C@H](O)[C@@H]2O)cc(C(=O)NCCOCCOCCO[C@H]2O[C@H](CO)[C@@H](O)[C@H](O)[C@@H]2O)c1` [Compound 35] was tested, and the “mannose ligand conjugated fluorescence (ligand binding)” value (“mannose ligand conjugated fluorescence” for short) ([1]; FIG. 2) was “Dose dependent increase” and the “mannose ligand conjugated fluorescence” value [2] was “Dose dependent increase”.
For `O=C(CC[C@H](NC(=O)CCCC[C@H]1SC[C@H]2NC(=O)N[C@H]21)C(=O)NCC(=O)Nc1cc(C(=O)NCCOCCOCCO[C@H]2O[C@H](CO)[C@@H](O)[C@H](O)[C@@H]2O)cc(C(=O)NCCOCCOCCO[C@H]2O[C@H](CO)[C@@H](O)[C@H](O)[C@@H]2O)c1)NCC(=O)Nc1cc(C(=O)NCCOCCOCCO[C@H]2O[C@H](CO)[C@@H](O)[C@H](O)[C@@H]2O)cc(C(=O)NCCOCCOCCO[C@H]2O[C@H](CO)[C@@H](O)[C@H](O)[C@@H]2O)c1` [Compound 36], the “binding affinity ranked by valency (mono-, di-, tetra-valent)” value ([1]; M1 cells, FIG. 2) was “highest binding affinity”, the “mannose ligand conjugated fluorescence” value ([1]; FIG. 2) was “Dose dependent increase” and the “binding affinity ranked by valency (mono-, di-, tetra-valent)” value ([2]; M2 cells) was “highest binding affinity”. For the same molecule, the “mannose ligand conjugated fluorescence” value [2] was “Dose dependent increase”.
For `O=C(CCC(CCC(=O)NCC(=O)Nc1cc(C(=O)NCCOCCOCCO[C@H]2O[C@H](CO)[C@@H](O)[C@H](O)[C@@H]2O)cc(C(=O)NCCOCCOCCO[C@H]2O[C@H](CO)[C@@H](O)[C@H](O)[C@@H]2O)c1)(CCC(=O)NCC(=O)Nc1cc(C(=O)NCCOCCOCCO[C@H]2O[C@H](CO)[C@@H](O)[C@H](O)[C@@H]2O)cc(C(=O)NCCOCCOCCO[C@H]2O[C@H](CO)[C@@H](O)[C@H](O)[C@@H]2O)c1)NC(=O)CCCC[C@H]1SC[C@@H]2NC(=O)N[C@@H]21)NCC(=O)Nc1cc(C(=O)NCCOCCOCCO[C@H]2O[C@H](CO)[C@@H](O)[C@H](O)[C@@H]2O)cc(C(=O)NCCOCCOCCO[C@H]2O[C@H](CO)[C@@H](O)[C@H](O)[C@@H]2O)c1` [Compound 37], the “binding to M1 macrophages, tetra-, hexa- and octa-valent compared” value (shortened to “binding … hexa- and octa-valent compared”) ([1]; listed as Hexavalent mannose ligand) was “further increased binding” and the “binding … hexa- and octa-valent compared” value ([1]; listed as hexavalent mannose) was “highest binding affinity to M1 macrophages”.
`O=C(CC[C@H](NC(=O)CC[C@H](NC(=O)CCCC[C@@H]1SC[C@@H]2NC(=O)N[C@@H]21)C(=O)N[C@@H](CCC(=O)NCC(=O)Nc1cc(C(=O)NCCOCCOCCO[C@H]2O[C@H](CO)[C@@H](O)[C@H](O)[C@@H]2O)cc(C(=O)NCCOCCOCCO[C@H]2O[C@H](CO)[C@@H](O)[C@H](O)[C@@H]2O)c1)C(=O)NCC(=O)Nc1cc(C(=O)NCCOCCOCCO[C@H]2O[C@H](CO)[C@@H](O)[C@H](O)[C@@H]2O)cc(C(=O)NCCOCCOCCO[C@H]2O[C@H](CO)[C@@H](O)[C@H](O)[C@@H]2O)c1)C(=O)NCC(=O)Nc1cc(C(=O)NCCOCCOCCO[C@H]2O[C@H](CO)[C@@H](O)[C@H](O)[C@@H]2O)cc(C(=O)NCCOCCOCCO[C@H]2O[C@H](CO)[C@@H](O)[C@H](O)[C@@H]2O)c1)NCC(=O)Nc1cc(C(=O)NCCOCCOCCO[C@H]2O[C@H](CO)[C@@H](O)[C@H](O)[C@@H]2O)cc(C(=O)NCCOCCOCCO[C@H]2O[C@H](CO)[C@@H](O)[C@H](O)[C@@H]2O)c1` [Compound 38] was tested, and the “binding … hexa- and octa-valent compared” value [1] was “did not show additional benefit”.
With `O=C(CCCC[C@@H]1SC[C@@H]2NC(=O)N[C@@H]21)NCCCCCCOC1O[C@H](CO)[C@@H](O)[C@H](O)[C@@H]1O` (stereo partly shown) [Compound 39] the “mannose ligand conjugated fluorescence” value ([1]; FIG. 2) was “Dose dependent increase” and the “mannose ligand conjugated fluorescence” value [2] was “Dose dependent increase”.
In the case of `O=C[C@H](O)[C@@H](O)[C@@H](O)[C@H](O)CO` [D-Galactose], the “competitive inhibition of uptake of Cy3-tetra-mannose-siCD45” value [3] is reported as “no competitive binding effect”.
With `O=C[C@@H](O)[C@@H](O)[C@H](O)[C@H](O)CO` [D-mannose] the “competitive inhibition of uptake of Cy3-tetra-mannose-siCD45” value [3] was “substantially inhibited the uptake”.
